Test: xn = mol fraction of the nth substance listed, in the solute-free solvent

NCCS(=O)(=O)O + O + OCCO
solubility (g/100 g solution)
Details	298.15 K	303.15 K	308.15 K	313.15 K	318.15 K
x2 = 0.775	1.2	1.44	1.68	2.16	2.27
x2 = 0.8378	1.63	1.92	2.28	2.83	3.17
x2 = 0.8893	2.24	2.94	3.18	3.64	4.08
x2 = 0.9323	3.39	4.12	4.67	5.48	6.21
x2 = 0.9688	5.08	6.22	7.45	8.66	10.1

CC(=O)Oc1cccc2c1C(=O)c1c(OC(C)=O)cc(C(=O)O)cc1C2=O + CC(=O)N(C)C + O
solubility (g/100 g solution)
Details	x2 = 0.02247	x2 = 0.04917	x2 = 0.08143	x2 = 0.1212	x2 = 0.1714	x2 = 0.2368	x2 = 0.3255	x2 = 0.4528	x2 = 0.6506
278.15 K	0.00282	0.0125	0.0358	0.0823	0.255	0.368	0.38	0.452	0.496
283.15 K	0.00402	0.0162	0.0459	0.107	0.313	0.441	0.521	0.622	0.691
288.15 K	0.00537	0.0204	0.0587	0.137	0.374	0.525	0.683	0.821	0.927
293.15 K	0.00727	0.0256	0.0748	0.173	0.444	0.633	0.885	1.07	1.18
298.15 K	0.00929	0.0324	0.0937	0.219	0.532	0.779	1.12	1.35	1.47
303.15 K	0.0112	0.0405	0.119	0.274	0.633	0.95	1.38	1.69	1.81
308.15 K	0.0139	0.0502	0.149	0.343	0.746	1.16	1.7	2.1	2.29
313.15 K	0.0168	0.0643	0.184	0.429	0.862	1.44	2.04	2.54	2.83

CN1CCC(N(Cc2cccs2)c2ccccc2)CC1 + CN(C)C=O + O
solubility (g/100 g solution)
Details	278.15 K	283.15 K	288.15 K	293.15 K	298.15 K	303.15 K	308.15 K	313.15 K	318.15 K	323.15 K
x2 = 0.02666	0.234	0.248	0.263	0.283	0.308	0.336	0.367	0.396	0.432	0.473
x2 = 0.05806	0.678	0.715	0.75	0.8	0.862	0.931	1.01	1.08	1.16	1.26
x2 = 0.09556	1.25	1.32	1.38	1.47	1.58	1.7	1.83	1.95	2.11	2.27
x2 = 0.1412	1.74	1.84	1.95	2.07	2.23	2.4	2.59	2.76	2.98	3.21
x2 = 0.1978	2.05	2.19	2.34	2.51	2.71	2.93	3.16	3.38	3.65	3.96
x2 = 0.27	2.31	2.46	2.65	2.87	3.12	3.38	3.66	3.93	4.27	4.64
x2 = 0.3652	2.53	2.75	2.99	3.25	3.54	3.83	4.16	4.52	4.89	5.35
x2 = 0.4965	2.78	3.02	3.28	3.6	3.95	4.31	4.69	5.09	5.53	6.09
x2 = 0.6893	2.78	3.07	3.4	3.73	4.13	4.53	4.98	5.42	5.95	6.54

Nc1cccc2ccncc12 + CO + O
solubility (g/100 g solution)
Details	278.15 K	283.15 K	288.15 K	293.15 K	298.15 K	303.15 K	308.15 K	313.15 K	318.15 K	323.15 K
x2 = 0.05881	0.0271	0.0315	0.0363	0.0431	0.0495	0.0576	0.0677	0.079	0.0916	0.107
x2 = 0.1233	0.0301	0.035	0.0406	0.0481	0.0556	0.0648	0.0763	0.0893	0.104	0.122
x2 = 0.1942	0.0368	0.0428	0.0497	0.0588	0.0681	0.0794	0.0937	0.11	0.128	0.15
x2 = 0.2727	0.0479	0.0557	0.0648	0.0762	0.0886	0.103	0.122	0.142	0.167	0.196
x2 = 0.3599	0.0644	0.0748	0.087	0.102	0.119	0.138	0.163	0.19	0.223	0.262
x2 = 0.4576	0.0845	0.0982	0.115	0.134	0.157	0.183	0.216	0.252	0.296	0.349
x2 = 0.5675	0.111	0.128	0.15	0.175	0.205	0.238	0.282	0.329	0.387	0.455
x2 = 0.6923	0.131	0.153	0.179	0.209	0.248	0.289	0.343	0.4	0.473	0.559
x2 = 0.835	0.144	0.167	0.201	0.239	0.286	0.34	0.399	0.461	0.542	0.644

Nc1cccc2ccncc12 + CCO + O
solubility (g/100 g solution)
Details	278.15 K	283.15 K	288.15 K	293.15 K	298.15 K	303.15 K	308.15 K	313.15 K	318.15 K	323.15 K
x2 = 0.04165	0.0455	0.0527	0.0604	0.0712	0.0812	0.0941	0.11	0.128	0.147	0.171
x2 = 0.08908	0.0727	0.084	0.0965	0.113	0.129	0.149	0.174	0.202	0.233	0.271
x2 = 0.1436	0.111	0.129	0.148	0.172	0.197	0.228	0.266	0.308	0.355	0.413
x2 = 0.2068	0.162	0.187	0.215	0.25	0.287	0.332	0.387	0.448	0.517	0.602
x2 = 0.2812	0.211	0.244	0.286	0.338	0.39	0.45	0.52	0.604	0.697	0.809
x2 = 0.3698	0.271	0.315	0.371	0.441	0.51	0.589	0.685	0.794	0.922	1.08
x2 = 0.4772	0.308	0.371	0.437	0.522	0.618	0.722	0.846	0.987	1.14	1.33
x2 = 0.6101	0.364	0.432	0.522	0.614	0.718	0.835	0.975	1.13	1.33	1.56
x2 = 0.7788	0.383	0.459	0.559	0.658	0.77	0.902	1.06	1.25	1.47	1.73

CN1CCC(N(Cc2cccs2)c2ccccc2)CC1 + CCO + O
solubility (g/100 g solution)
Details	278.15 K	283.15 K	288.15 K	293.15 K	298.15 K	303.15 K	308.15 K	313.15 K	318.15 K	323.15 K
x2 = 0.04165	0.102	0.109	0.117	0.128	0.141	0.156	0.171	0.187	0.206	0.228
x2 = 0.08908	0.202	0.215	0.23	0.25	0.274	0.301	0.33	0.358	0.393	0.431
x2 = 0.1436	0.339	0.36	0.385	0.418	0.457	0.501	0.546	0.592	0.646	0.707
x2 = 0.2068	0.502	0.533	0.571	0.62	0.679	0.743	0.807	0.874	0.953	1.04
x2 = 0.2812	0.667	0.713	0.764	0.826	0.904	0.984	1.07	1.16	1.26	1.39
x2 = 0.3698	0.851	0.906	0.981	1.07	1.18	1.29	1.4	1.51	1.65	1.8
x2 = 0.4772	1.02	1.08	1.18	1.29	1.42	1.56	1.69	1.84	2.01	2.19
x2 = 0.6101	1.16	1.24	1.36	1.5	1.65	1.81	1.97	2.15	2.35	2.56
x2 = 0.7788	1.22	1.32	1.47	1.64	1.81	2	2.19	2.4	2.63	2.87

Cc1ccc2cc(Br)ccc2n1 + CC(C)O + O
solubility (g/100 g solution)
Details	278.15 K	283.15 K	288.15 K	293.15 K	298.15 K	303.15 K	308.15 K	313.15 K	318.15 K	323.15 K
x2 = 0.03225	0.0479	0.0553	0.0644	0.0741	0.0853	0.0974	0.113	0.129	0.148	0.169
x2 = 0.06974	0.141	0.161	0.185	0.211	0.241	0.273	0.312	0.356	0.403	0.457
x2 = 0.1139	0.263	0.301	0.346	0.393	0.446	0.505	0.576	0.655	0.74	0.837
x2 = 0.1666	0.372	0.427	0.492	0.56	0.637	0.723	0.826	0.94	1.06	1.2
x2 = 0.2307	0.427	0.503	0.586	0.671	0.769	0.881	0.997	1.15	1.31	1.5
x2 = 0.3103	0.482	0.567	0.673	0.787	0.904	1.04	1.19	1.37	1.57	1.79
x2 = 0.4117	0.539	0.642	0.767	0.896	1.04	1.2	1.39	1.59	1.81	2.06
x2 = 0.5454	0.596	0.7	0.856	1.03	1.2	1.4	1.63	1.89	2.17	2.48
x2 = 0.7297	0.657	0.815	0.972	1.16	1.33	1.56	1.81	2.1	2.4	2.78
